According to patent US4282236A, “β-Lactam antibacterial agents, their use in pharmaceutical compositions, and intermediates” (Beecham Group Limited, priority 1979, dated 1981):

Tests used:
Assay type in all cases: cell-based
Pseudomonas aeruginosa A [1] = assay: MIC, microtitre using nutrient broth; conditions: read-out: minimum inhibitory concentration (MIC)
Description: (§1) The penem ester (21) (30 mg) was dissolved in a mixture of dioxane (4 ml) and water (1 ml) and hydrogenated over 5% palladium on charcoal catalyst (45 mg) for one hour. A further amount of catalyst (30 mg) was added and the hydrogenation was continued for a further one and a half hours. A 1% solution of sodium bicarbonate (0.6 ml) was added and the mixture filtered through Kieselguhr. The mixture was evaporated to low volume, water (10 ml) was added, and the aqueous solution washed with a little ethyl acetate. Evaporation of the aqueous phase afforded the sodium salt (22) (17 mg) as an amorphous solid. λmax. (EtOH) 364 n.m.
(§2) 2. Microtitre using nutrient
(§3) lution for G.div.ve bacteria or
(§4) broth a 10^- 4 dilution for G-ve
(§5) Minimum Inhibitory Concentrations are expressed in microgrammes per ml.

[2] = test system: Staphylococcus aureus Oxford; assay: MIC, microtitre using nutrient broth; conditions: read-out: minimum inhibitory concentration (MIC)
Description: as §1, §2, §3, §4, §5

Escherichia coli 0111 [3] = assay: MIC, microtitre using nutrient broth; conditions: read-out: minimum inhibitory concentration (MIC)
Description: as §1, §2, §3, §4, §5

Proteus mirabilis C977 [4] = assay: MIC, microtitre using nutrient broth; conditions: read-out: minimum inhibitory concentration (MIC)
Description: as §1, §2, §3, §4, §5

[5] = test system: Staphylococcus aureus Russell; assay: MIC, microtitre using nutrient broth; conditions: read-out: minimum inhibitory concentration (MIC)
Description: as §1, §2, §3, §4, §5

Klebsiella aerogenes A [6] = assay: MIC, microtitre using nutrient broth; conditions: read-out: minimum inhibitory concentration (MIC)
Description: as §1, §2, §3, §4, §5

[7] = test system: Salmonella typhimurium CT10; assay: MIC, microtitre using nutrient broth; conditions: Salmonella enterica, read-out: minimum inhibitory concentration (MIC)
Description: as §1, §2, §3, §4, §5

Escherichia coli JT 39 [8] = assay: MIC, microtitre using nutrient broth; conditions: JT39, read-out: minimum inhibitory concentration (MIC)
Description: as §1, §2, §3, §4, §5

Pseudomonas aeruginosa A [9] = assay: MIC, DST agar + 10% horse blood; conditions: read-out: minimum inhibitory concentration (MIC)
Description: as §1
(§6) 1. DST agar + 10% horse blood
as §3, §5

[10] = test system: Staphylococcus aureus Oxford; assay: MIC, DST agar + 10% horse blood; conditions: read-out: minimum inhibitory concentration (MIC)
Description: as §1, §6, §3, §5

Shigella sonnei MB 11967 = assay: MIC, DST agar + 10% horse blood; conditions: MB11967, read-out: minimum inhibitory concentration (MIC)
Description: as §1, §6, §3, §5

[11] = test system: Streptococcus pneumoniae CN33; assay: MIC, DST agar + 10% horse blood; conditions: read-out: minimum inhibitory concentration (MIC)
Description: as §1, §6, §3, §5

Bacillus subtilis A = assay: MIC, DST agar + 10% horse blood; conditions: read-out: minimum inhibitory concentration (MIC)
Description: as §1, §6, §3, §5

Escherichia coli 0111 [12] = assay: MIC, DST agar + 10% horse blood; conditions: read-out: minimum inhibitory concentration (MIC)
Description: as §1, §6, §3, §5

Proteus vulgaris W091 = assay: MIC, DST agar + 10% horse blood; conditions: read-out: minimum inhibitory concentration (MIC)
Description: as §1, §6, §3, §5

Proteus mirabilis C977 [13] = assay: MIC, DST agar + 10% horse blood; conditions: read-out: minimum inhibitory concentration (MIC)
Description: as §1, §6, §3, §5

Citrobacter freundii E8 = assay: MIC, DST agar + 10% horse blood; conditions: read-out: minimum inhibitory concentration (MIC)
Description: as §1, §6, §3, §5

[14] = test system: Staphylococcus aureus Russell; assay: MIC, DST agar + 10% horse blood; conditions: read-out: minimum inhibitory concentration (MIC)
Description: as §1, §6, §3, §5

[15] = test system: Streptococcus pyogenes CN10; assay: MIC, DST agar + 10% horse blood; conditions: read-out: minimum inhibitory concentration (MIC)
Description: as §1, §6, §3, §5

Klebsiella aerogenes A [16] = assay: MIC, DST agar + 10% horse blood; conditions: read-out: minimum inhibitory concentration (MIC)
Description: as §1, §6, §3, §5

Serratia marcescens US20 = assay: MIC, DST agar + 10% horse blood; conditions: read-out: minimum inhibitory concentration (MIC)
Description: as §1, §6, §3, §5

[17] = test system: Salmonella typhimurium CT10; assay: MIC, DST agar + 10% horse blood; conditions: Salmonella enterica, read-out: minimum inhibitory concentration (MIC)
Description: as §1, §6, §3, §5

[18] = test system: Staphylococcus aureus 1517; assay: MIC, DST agar + 10% horse blood; conditions: read-out: minimum inhibitory concentration (MIC)
Description: as §1, §6, §3, §5

Enterobacter cloacae N1 = assay: MIC, DST agar + 10% horse blood; conditions: read-out: minimum inhibitory concentration (MIC)
Description: as §1, §6, §3, §5

Proteus morganii I580 = assay: MIC, DST agar + 10% horse blood; conditions: Morganella morganii, read-out: minimum inhibitory concentration (MIC)
Description: as §1, §6, §3, §5

Escherichia coli JT 39 [19] = assay: MIC, DST agar + 10% horse blood; conditions: JT39, read-out: minimum inhibitory concentration (MIC)
Description: as §1, §6, §3, §5

E. coli ESS = assay: MIC, DST agar + 10% horse blood; conditions: Escherichia coli, read-out: minimum inhibitory concentration (MIC)
Description: as §1, §6, §3, §5

Proteus rettgeri WM16 = assay: MIC, DST agar + 10% horse blood; conditions: Providencia rettgeri, read-out: minimum inhibitory concentration (MIC)
Description: as §1, §6, §3, §5

With `COC(=O)/C=C/C1=C(C(=O)O)N2C(=O)C[C@H]2S1` [compound 22, Sodium 2-(trans-2-Carbomethoxy-vinyl) penem-3-carboxylate] the MIC (Pseudomonas aeruginosa A [1]) was > 500 µg/mL, the MIC [2] was 8 µg/mL and the MIC (Escherichia coli 0111 [3]) was 62 µg/mL. It also gave an MIC (Proteus mirabilis C977 [4]) of 125 µg/mL, an MIC [5] of 16 µg/mL and an MIC (Klebsiella aerogenes A [6]) of 31 µg/mL. The MIC [7] was 125 µg/mL, the MIC (Escherichia coli JT 39 [8]) was 250 µg/mL and the MIC (Pseudomonas aeruginosa A [9]) was > 100 µg/mL. For the same compound, the MIC [10] was 5 µg/mL, the MIC (Shigella sonnei MB 11967) was 100 µg/mL and the MIC [11] was 0.5 µg/mL. For the same compound, the MIC (Bacillus subtilis A) was 5 µg/mL, the MIC (Escherichia coli 0111 [12]) was 25 µg/mL and the MIC (Proteus vulgaris W091) was 50 µg/mL. The MIC (Proteus mirabilis C977 [13]) was 25 µg/mL, the MIC (Citrobacter freundii E8) was 25 µg/mL and the MIC [14] was 10 µg/mL. The MIC [15] was 2.5 µg/mL, the MIC (Klebsiella aerogenes A [16]) was 25 µg/mL and the MIC (Serratia marcescens US20) was 50 µg/mL. For the same compound, the MIC [17] was 50 µg/mL, the MIC [18] was 50 µg/mL and the MIC (Enterobacter cloacae N1) was 50 µg/mL. The MIC (Proteus morganii I580) was 50 µg/mL, the MIC (Escherichia coli JT 39 [19]) was 100 µg/mL and the MIC (E. coli ESS) was 25 µg/mL. It also gave an MIC (Proteus rettgeri WM16) of 50 µg/mL.
